The record followed here is patent US7015218B1, “Amide compounds and medicinal use thereof” (Mitsubishi Pharma Corporation, priority 1999, dated 2006).

The data set has as its system DBA/1J mouse. Nature of the data set: Type II collagen induced arthritis in DBA/1J mouse. The class given is in vivo. The protocol:
An emulsion was prepared by mixing bovine type II collagen (100–200 μg, purchased from Collagen Gizyutsu Kensyukai) with Freund's complete adjuvant (Sigma) containing dead tubercle bacillus H37Ra was given to 6–7 week-old male DBA/1J mice (Charles River Japan) subcutaneously from the root of the tail for immunization twice at 3 week intervals, thereby developing arthritis. The compound of the present invention or a pharmaceutically acceptable salt thereof was suspended or dissolved in 0.5% hydroxypropylmethylcellulose and orally administered repeatedly at the dose of 0.01–100 mg/kg body weight using an oral sound for 6 weeks from the first immunization. This model was evaluated for the symptoms of arthritis in the four limbs according to the following criteria in 0 to 4 scores. The arthritis score of each mouse was expressed by the total of the scores of the four limbs (maximum:16 points), and when the total score was 1 or more, the onset of arthritis was acknowledged.
The thickness of the four limbs of the mouse was measured with vernier calipers and the total score of the four limbs was used as an index of arthritis. Using a soft X-ray photography (OHMIC co.), the four limbs were X rayed to evaluate the level of destruction of the joints. […]

As for `Cc1c(C(=O)Nc2ccc(C(F)(F)F)cc2)cnn1-c1ccc(F)cc1` [1-(4-fluorophenyl)-N-(4-trifluoromethylphenyl)-5-methylpyrazole-4-carboxamide], the “improvement of severity of developed arthritis, swelling of four limbs or joint destruction” value (repeat oral administration at 10 mg/kg body weight) is “did not improve”. Further, the death incidence result (repeat oral administration at 30 mg/kg body weight) is reported as “death incidence was confirmed”.
